{
  "source": "patent US11506670B2",
  "about": "“Method of genome-wide direct identification of electrophile-sensing targets” (Cornell University, priority 2018, dated 2022)",
  "key": {"[1]": {"molecular_target": "Ube2V2 (Homo sapiens, UniProt Q15819)", "sequence (Q15819 whole entry)": "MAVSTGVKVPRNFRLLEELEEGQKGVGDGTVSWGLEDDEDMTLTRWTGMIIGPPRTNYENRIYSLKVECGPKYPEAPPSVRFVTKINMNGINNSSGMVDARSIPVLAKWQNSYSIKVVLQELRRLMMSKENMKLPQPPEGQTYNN", "assay": "T-REX targeted delivery efficiency, in-gel fluorescence (Cy5 Click)", "format": "cell-based", "design": "the gene of interest (GOI) was PCR-amplified out from the original plasmid; expressed in transfected cells; host or cells: HEK 293T", "conditions": "HEK293T, Halo-Ube2V2", "experimental": "(§1) HEK 293T cells were maintained in 1×MEM+ Glutamax™ media supplemented with 10% FBS, 1×NEAA, 1× sodium pyruvate and 1× Pen-Strep. Cells were grown in a humidified, 5% CO2 incubator at 37° C. For in-gel fluorescence analysis and western blot, ˜0.7-0.8×10^6 HEK 293T cells were seeded in 8 cm^2 tissue culture dishes. 24 h later, cells were transfected using TransIT-2020 transfection reagent per the manufacturer's recommendation. Subsequent steps were performed under dim light. 24-36 h post transfection, monolayer of cells were treated with 25 μM Ht-PreHNE in serum-free media and incubated for 2.5 h. Cells were gently rinsed with serum-free media three times every 30 min over the next 1.5 h. Meanwhile, UV lamps were turned on 10 min prior to UV irradiation time. For samples designated for light exposure, lids were removed from the dishes and cells were placed under 365 nm UV light for 5-8 min. The cells were harvested, washed two times with ice-cold PBS and frozen in liquid nitrogen.\n(§2) All steps were performed in dark or under dim light. Cells from 8 cm^2 plates were lysed in 30 μL buffer containing 50 mM HEPES (pH 7.6), 150 mM NaCl, 1% Nonidet P-40, 1× Roche cOmplete, mini, EDTA-free protease inhibitor cocktail, and 0.3 mM TCEP by rapid freeze-thaw (×3). […] Protein concentration of the clarified lysate was determined using Bradford assay. […]"}, "[2]": {"test_system": "γ-H2AX", "assay": "γ-H2AX immunofluorescence in HEK293T cells", "format": "cell-based, human", "experimental": "Cells were grown to 70% confluence in 35 mm glass-bottomed dishes and transfected with HaloTagged plasmids. T-REX™ delivery was performed as mentioned above. […] The fixative was aspirated and the cells washed three times with 1×DPBS with 5-min incubation at room temperature. Blocking and permeabilization was performed in one-step by incubation at 37° C. for 1 h in 1×DPBS containing 3% BSA and 0.2% Triton X-100. Cells were subsequently incubated with primary antibody (1:300, Table 4) in incubation buffer (1% BSA, 0.02% Triton X-100 in 1×DPBS) for 2 h at room temperature. Cells were rinsed 3 times with 1×DPBS with 5 min incubation for each wash and subsequently incubated in dark for 1 h at room temperature with corresponding second antibody (1:1000, Table 4) in incubation buffer. Cells were rinsed 3 times with 1×DPBS with 5 min incubation for each rinse. DAPI (Sigma) was freshly prepared in 1×DPBS from 2 mg/mL wt./v stock solution in water and added to the wells at the final concentration of 0.2 μg/mL. The samples were incubated in dark for 1 min and washed once with 1×DPBS and stored at 4° C. in dark till images were taken using a Zeiss LSM 710 meta confocal fluorescence microscope. Image analysis was performed using Image-J (NIH)."}, "[3]": {"molecular_target": "T1, Ube2V1 (Homo sapiens, UniProt Q13404)", "T1 construct": "the gene of interest (GOI) was PCR-amplified out from the original plasmid; expressed in transfected cells; host or cells: HEK 293T", "T1 sequence (Q13404 1-170 isoform Q13404-2)": "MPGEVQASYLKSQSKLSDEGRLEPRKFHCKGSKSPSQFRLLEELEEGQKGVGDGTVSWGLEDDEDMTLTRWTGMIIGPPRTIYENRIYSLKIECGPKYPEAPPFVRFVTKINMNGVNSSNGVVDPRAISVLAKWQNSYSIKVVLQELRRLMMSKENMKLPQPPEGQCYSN", "assay": "T-REX targeted delivery efficiency, in-gel fluorescence (Cy5 Click)", "format": "cell-based", "conditions": "HEK293T, Halo-Ube2V1", "experimental": "as §1, §2"}, "[4]": {"molecular_target": "T2, Ube2N (Homo sapiens, UniProt P61088)", "T2 construct": "expressed in transfected cells; host or cells: HEK 293T", "T2 sequence (P61088 1-152)": "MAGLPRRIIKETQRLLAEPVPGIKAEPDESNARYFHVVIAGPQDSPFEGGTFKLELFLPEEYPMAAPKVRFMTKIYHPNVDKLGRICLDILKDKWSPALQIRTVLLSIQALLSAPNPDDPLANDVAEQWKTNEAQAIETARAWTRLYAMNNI", "assay": "T-REX targeted delivery efficiency, in-gel fluorescence (Cy5 Click)", "format": "cell-based", "conditions": "HEK293T, Halo-Ube2N", "experimental": "as §1, §2"}},
  "note": "Several values for one entry are separate records, joined by “and”; a condition that tells them apart may be missing. Equal entries are not always repeated.",
  "data": [
    {"molecule": "CCCCCC(O)/C=C/C=O", "note": "(stereo not drawn) [HNE, 4-hydroxynonenal]", "values": [
      {"measurement": "T-REX targeted delivery efficiency", "setting": "[1]", "result": "15±6% and 15%"},
      {"measurement": "γ-H2AX upregulation in Ube2V2-C69S-expressing cells", "setting": "[2]; T-REX, over 18-h time course", "result": "no significant γ-H2AX upregulation"},
      {"measurement": "time post light exposure up to which increased γ-H2AX could be measured", "setting": "[2]; basal after 24 h", "result": "up to 18 h"},
      {"measurement": "increase in cellular γ-H2AX following Ube2V2(C69)-targeted-HNEylation", "setting": "[2]; wt-Halo-Ube2V2, T-REX", "result": "approximately two-fold"},
      {"measurement": "T-REX targeted delivery efficiency", "setting": "[3]", "result": "5±2", "unit": "%"},
      {"measurement": "T-REX targeted delivery efficiency", "setting": "[4]", "result": "< 2", "unit": "%"}
    ]}
  ]
}
